Reference: patent US12459951B2, “Compounds that interact with RAS superfamily proteins for treatment of cancers, inflammatory diseases, rasopathies, and fibrotic disease” (SHY Therapeutics, LLC, priority 2022, dated 2025)
Like-named read-outs stand apart in the source and are kept apart here.

What was measured:
[1] = test system: MiaPaca-2 (expressing KRAS G12C mutant); experiment: Proliferation Assay (Cell Viability Assay); type: cell-based; details: Homo sapiens, MIA PaCa-2
In short: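 MiaPaca-2 cells (KRAS G12C) were grown in DMEM-high glucose with 10% FBS, seeded at 2000–5000 cells/well and cultured overnight. Compounds were added at 10 μM final, or as serial dilutions for IC50, in 0.3% DMSO/10% FBS for 2–4 days at 37 °C, 5% CO2. Viability was measured with CellTiter 96 Aqueous One and % inhibition calculated.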

KRas G12D mutant = experiment: Ras GTP Binding Domain Inhibition Assay (Ras Superfamily Assay); details: for KRas G12D mutant + SOS: % inh.: with SOS; for KRas G12D mutant: % inh.: without SOS
In short: (§1)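 Ni-plate capture of His-tagged protein (10-30 μg/mL, o/n 4° C); cpd 20 μM or dilution series, 1% DMSO, 3 h RT ± Sos 556-1049 last h; 100 nM Cy-labelled GTP 45 min RT; 3× wash; fluorescence read.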

KRas wild type = experiment: as above; details: for KRas wild type + SOS: % inh.: with SOS; for KRas wild type: % inh.: without SOS
In short: as §1

Rac-1 = biological target: T1, Rac-1 (Homo sapiens, UniProt P63000); experiment: as above; details: read-out: Rac-1: % inh.
T1 construct: made in house
In short: as §1

[2] = read-out: Proliferation in MiaPaca-2: IC50

| Compound | IC50 [1, 2] | KRas G12D mutant + SOS: % inh. (KRas G12D mutant; 20 μM compound) | KRas G12D mutant: % inh. (KRas G12D mutant; 20 μM compound) | KRas wild type + SOS: % inh. (KRas wild type; 20 μM compound) | KRas wild type: % inh. (KRas wild type; 20 μM compound) | inhibition at 20 µM (Rac-1) | KRas G12D mutant + SOS: % inh. (KRas G12D mutant; at 20 μM) | KRas G12D mutant: % inh. (KRas G12D mutant; at 20 μM) | KRas wild type + SOS: % inh. (KRas wild type; at 20 μM) | KRas wild type: % inh. (KRas wild type; at 20 μM) | IC50 ([1]; Proliferation assay, MiaPaca-2, read-out: MiaPaca-2 IC50 (nM) Pancreatic) |
| --- | --- | --- | --- | --- | --- | --- | --- | --- | --- | --- | --- |
| CO[C@H]1CC[C@H](Nc2nc(-c3nccn3C)nn3cc(-c4ccn(C)n4)c(C(=O)NCCN4CCOCC4)c23)C1 (racemic) [Compound 185, rac 4-(((1S,3S)-3-methoxycyclo-pentyl)amino)-2-(1-methyl-1H-imidazol-2-yl)-6-(1-methyl-1H-pyrazol-3-yl)-N-(2-morpholino-ethyl)pyrrolo[2,1-f][1,2,4]triazine-5-carboxamide] | > 1000 nM | 0 (0 = 0% inhibition) | A (A = 1-25% inhibition) | 0 (0 = 0% inhibition) | A (A = 1-25% inhibition) | 0% |  |  |  |  |  |
| COCC1CCN(c2nc(-c3ccccn3)nn3cc(-c4ccn(C(C)C)n4)c(C)c23)C1 (racemic) [Compound 10, rac 6-(1-Isopropyl-1H-pyrazol-3-yl)-4-(3-(methoxymethyl)pyrrolidin-1-yl)-5-methyl-2-(pyridin-2-yl)pyrrolo[2,1-f][1,2,4]triazine] | > 1000 nM | 0 (0 = 0% inhibition) | A (A = 1-25% inhibition) | 0 (0 = 0% inhibition) | A (A = 1-25% inhibition) | 1 to 25% |  |  |  |  |  |
| CO[C@H]1C[C@H](S(=O)(=O)Nc2nc(-c3nccn3C)nn3cc(-c4ccccc4)c(-c4ccccc4)c23)C1 [Compound 214, (1r,3r)-3-Methoxy-N-(2-(1-methyl-1H-imidazol-2-yl)-5,6-diphenylpyrrolo[2,1-f][1,2,4]triazin-4-yl)cyclobutane-1-sulfonamide] | > 1000 nM |  |  |  |  | 50 to 75% | C (C = 50-75% inhibition) | C (C = 50-75% inhibition) | C (C = 50-75% inhibition) | C (C = 50-75% inhibition) |  |
| CO[C@H]1C[C@H](Nc2nc(-c3nccn3C)nn3cc(-c4cccnc4)c(-c4ccccc4)c23)C1 [Compound 192, N-((1r,3r)-3-Methoxycyclobutyl)-2-(1-methyl-1H-imidazol-2-yl)-5-phenyl-6-(pyridin-3-yl)pyrrolo[2,1-f][1,2,4]triazin-4-amine] | > 1000 nM |  |  |  |  | 1 to 25% | B (B = 26-49% inhibition) | B (B = 26-49% inhibition) | B (B = 26-49% inhibition) | B (B = 26-49% inhibition) |  |
| CO[C@H]1CC[C@H](Nc2nc(-c3nccn3C)nn3cc(-c4ccn(C)n4)c(C(=O)NC4CC4)c23)C1 (racemic) [Compound 182, rac N-Cyclopropyl-4-(((1S,3S)-3-methoxycyclo-pentyl)amino)-2-(1-methyl-1H-imidazol-2-yl)-6-(1-methyl-1H-pyrazol-3-yl)pyrrolo[2,1-f][1,2,4]triazine-5-carboxamide] | > 1000 nM | 0 (0 = 0% inhibition) | A (A = 1-25% inhibition) | A (A = 1-25% inhibition) | A (A = 1-25% inhibition) | 1 to 25% |  |  |  |  |  |
| Cc1c(-c2ccn(C)n2)cn2nc(-c3nccn3C)nc(Nc3ccc(C(C)(C)O)cn3)c12 [Compound 241, 2-(6-((5-Methyl-2-(1-methyl-1H-imidazol-2-yl)-6-(1-methyl-1H-pyrazol-3-yl)pyrrolo[2,1-f][1,2,4]triazin-4-yl)amino)pyridin-3-yl)propan-2-ol] | > 1000 nM |  |  |  |  | 76 to 100% | D (D = 76-100% inhibition) | D (D = 76-100% inhibition) | D (D = 76-100% inhibition) | D (D = 76-100% inhibition) |  |
| CO[C@H]1CC[C@H](Nc2nc(-c3nccn3C)nn3cc(-c4ccncc4)c(-c4ccccc4)c23)C1 (racemic) [Compound 201, rac N-((1S,3S)-3-Methoxycyclopentyl)-2-(1-methyl-1H-imidazol-2-yl)-5-phenyl-6-(pyridin-4-yl)pyrrolo[2,1-f][1,2,4]triazin-4-amine] | > 1000 nM |  |  |  |  | 26 to 49% | B (B = 26-49% inhibition) | B (B = 26-49% inhibition) | B (B = 26-49% inhibition) | A (A = 1-25% inhibition) |  |

Further lines, results first:

| IC50 [1, 2] | KRas G12D mutant + SOS: % inh. (KRas G12D mutant; 20 μM compound) | KRas G12D mutant: % inh. (KRas G12D mutant; 20 μM compound) | KRas wild type + SOS: % inh. (KRas wild type; 20 μM compound) | KRas wild type: % inh. (KRas wild type; 20 μM compound) | inhibition at 20 µM (Rac-1) | KRas G12D mutant + SOS: % inh. (KRas G12D mutant; at 20 μM) | KRas G12D mutant: % inh. (KRas G12D mutant; at 20 μM) | KRas wild type + SOS: % inh. (KRas wild type; at 20 μM) | KRas wild type: % inh. (KRas wild type; at 20 μM) | IC50 ([1]; Proliferation assay, MiaPaca-2, read-out: MiaPaca-2 IC50 (nM) Pancreatic) | Compound |
| --- | --- | --- | --- | --- | --- | --- | --- | --- | --- | --- | --- |
| > 1000 nM | D (D = 76-100% inhibition) | D (D = 76-100% inhibition) | D (D = 76-100% inhibition) | D (D = 76-100% inhibition) | 76 to 100% |  |  |  |  |  | COc1ccnc(Nc2nc(-c3nccn3C)nn3cc(-c4ccn(C)n4)c(C(=O)N4CCOCC4)c23)c1 [Compound 179, (4-((4-Methoxypyridin-2-yl)amino)-2-(1-methyl-1H-imidazol-2-yl)-6-(1-methyl-1H-pyrazol-3-yl)pyrrolo[2,1-f][1,2,4]triazin-5-yl)(morpho-lino)methanone] |
| > 1000 nM |  |  |  |  | 1 to 25% | A (A = 1-25% inhibition) | B (B = 26-49% inhibition) | 0 (0 = 0% inhibition) | A (A = 1-25% inhibition) |  | Cc1c(-c2ccn(C)n2)cn2nc(-c3nccn3C)nc(Nc3ccc(-n4ccnc4)cn3)c12 [Compound 242, N-(5-(1H-Imidazol-1-yl)pyridin-2-yl)-5-methyl-2-(1-methyl-1H-imidazol-2-yl)-6-(1-methyl-1H-pyrazol-3-yl)pyrrolo[2,1-f][1,2,4]triazin-4-amine] |
| > 1000 nM |  |  |  |  | 26 to 49% | B (B = 26-49% inhibition) | B (B = 26-49% inhibition) | B (B = 26-49% inhibition) | A (A = 1-25% inhibition) |  | CO[C@H]1C[C@@H](Nc2nc(-c3nccn3C)nn3cc(-c4ccncc4)c(-c4ccccc4)c23)C1 [Compound 198, N-((1s,3s)-3-Methoxycyclobutyl)-2-(1-methyl-1H-imidazol-2-yl)-5-phenyl-6-(pyridin-4-yl)pyrrolo[2,1-f][1,2,4]triazin-4-amine] |
| < 150 nM |  |  |  |  | 76 to 100% | D (D = 76-100% inhibition) | D (D = 76-100% inhibition) | D (D = 76-100% inhibition) | D (D = 76-100% inhibition) |  | Cc1c(-c2ccn(C)n2)cn2nc(-c3nccn3C)nc(Nc3ccc(-n4ccnc4C)cn3)c12 [Compound 243, 5-Methyl-N-(5-(2-methyl-1H-imidazol-1-yl)pyridin-2-yl)-2-(1-methyl-1H-imidazol-2-yl)-6-(1-methyl-1H-pyrazol-3-yl)pyrrolo[2,1-f][1,2,4]triazin-4-amine] |
| 510 to 1000 nM | D (D = 76-100% inhibition) | D (D = 76-100% inhibition) | D (D = 76-100% inhibition) | D (D = 76-100% inhibition) | 76 to 100% |  |  |  |  |  | COCCNC(=O)c1c(-c2ccn(C)n2)cn2nc(-c3nccn3C)nc(Nc3cc(OC)ccn3)c12 [Compound 176, N-(2-Methoxyethyl)-4-((4-methoxypyridin-2-yl)amino)-2-(1-methyl-1H-imidazol-2-yl)-6-(1-methyl-1H-pyrazol-3-yl)pyrrolo[2,1-f][1,2,4]triazine-5-carboxamide] |
| < 150 nM |  |  |  |  | 76 to 100% | D (D = 76-100% inhibition) | D (D = 76-100% inhibition) | D (D = 76-100% inhibition) | C (C = 50-75% inhibition) |  | Cc1c(-c2ccn(C)n2)cn2nc(-c3nccn3C)nc(Nc3ccc(C(F)F)cn3)c12 [Compound 234, N-(5-(Difluoromethyl)pyridin-2-yl)-5-methyl-2-(1-methyl-1H-imidazol-2-yl)-6-(1-methyl-1H-pyrazol-3-yl)pyrrolo[2,1-f][1,2,4]triazin-4-amine] |
| 150 to 500 nM |  |  |  |  | 26 to 49% | A (A = 1-25% inhibition) | A (A = 1-25% inhibition) | 0 (0 = 0% inhibition) | A (A = 1-25% inhibition) |  | COc1cccc(-c2cn3nc(-c4nccn4C)nc(N[C@H]4C[C@H](OC)C4)c3c2-c2ccccc2)c1C [Compound 209, 6-(3-methoxy-2-methylphenyl)-N-((1r,3r)-3-methoxycyclobutyl)-2-(1-methyl-1H-imidazol-2-yl)-5-phenylpyrrolo[2,1-f][1,2,4]triazin-4-amine] |
| < 150 nM |  |  |  |  | 76 to 100% | D (D = 76-100% inhibition) | D (D = 76-100% inhibition) | D (D = 76-100% inhibition) | D (D = 76-100% inhibition) | 1 to 10 nM | COc1cc(Nc2nc(-c3nccn3C)nn3cc(-c4ccn(C)n4)c(C)c23)ncc1C1CC1 [Compound 238, N-(5-Cyclopropyl-4-methoxypyridin-2-yl)-5-methyl-2-(1-methyl-1H-imidazol-2-yl)-6-(1-methyl-1H-pyrazol-3-yl)pyrrolo[2,1-f][1,2,4]triazin-4-amine] |
